Drawing on patent US20260184693A1, “INHIBITORS OF SOLUTE CARRIER FAMILY 6A MEMBER 19 (SLC6A19) AND METHODS OF USE THEREOF” (Maze Therapeutics, Inc., priority 2022, published 2026), this text covers IC50 for 24 compounds.

The structures appear in SMILES notation. pIC50: −log10 of the molar value.

This assay deals with T1, human SLC6A19 (Homo sapiens, UniProt Q695T7).
T1 construct: expressed in transfected cells
T1 sequence (Q695T7 1-634): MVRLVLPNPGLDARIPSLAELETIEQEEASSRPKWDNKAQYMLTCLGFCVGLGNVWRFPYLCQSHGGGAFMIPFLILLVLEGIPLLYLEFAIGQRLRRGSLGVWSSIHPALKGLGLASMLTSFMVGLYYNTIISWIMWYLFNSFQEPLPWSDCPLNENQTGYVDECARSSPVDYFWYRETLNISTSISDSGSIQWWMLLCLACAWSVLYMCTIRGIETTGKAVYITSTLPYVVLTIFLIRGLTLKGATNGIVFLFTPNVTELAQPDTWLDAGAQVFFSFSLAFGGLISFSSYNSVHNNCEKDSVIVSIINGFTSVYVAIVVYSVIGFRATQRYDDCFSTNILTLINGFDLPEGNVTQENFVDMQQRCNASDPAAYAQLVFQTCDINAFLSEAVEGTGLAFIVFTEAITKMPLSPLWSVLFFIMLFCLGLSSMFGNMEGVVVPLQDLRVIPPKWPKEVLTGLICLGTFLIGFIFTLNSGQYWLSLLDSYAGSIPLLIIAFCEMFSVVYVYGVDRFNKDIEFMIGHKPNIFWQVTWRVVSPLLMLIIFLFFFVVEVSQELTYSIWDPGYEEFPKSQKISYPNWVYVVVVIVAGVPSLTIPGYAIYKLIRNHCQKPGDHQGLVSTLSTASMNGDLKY
T1 sequence (Q9HBJ8 15-222 partner): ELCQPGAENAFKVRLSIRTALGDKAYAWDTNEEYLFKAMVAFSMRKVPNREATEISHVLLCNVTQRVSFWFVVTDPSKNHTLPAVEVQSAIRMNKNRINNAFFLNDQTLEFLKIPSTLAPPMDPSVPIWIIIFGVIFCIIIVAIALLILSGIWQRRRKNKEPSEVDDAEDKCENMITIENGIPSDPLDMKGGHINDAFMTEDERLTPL
Briefly: Example B2: 13C6,15N-isoleucine uptake, RapidFire mass spectrometry, in CHO cells with doxycycline-inducible expression of human SLC6A19 and TMEM27. The format is cell-based. The following applies: read-out: SLC6A19_RapidFire Uptake Assay IC50. Put shortly: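 Labelled isoleucine (13C6,15N; 2 mM added) was given 20 min at 37 °C, following a 20-min compound pre-treatment (10-point 2-fold series, duplicate). Cells were doxycycline-induced CHO co-expressing human SLC6A19 and TMEM27. Intracellular label was quantified by RapidFire-MS peak areas against a 13C-leucine standard.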
Broadly, the pIC50 is the IC50 on a negative log10 scale, so that one unit is a factor of ten. Regarding `CN(C)C(=O)NCC(=O)N1CCC[C@@H](N(C)C(=O)NCc2cc3cc(Cl)ccc3[nH]2)C1` [Compound 101, (R)-3-((5-chloro-1H-indol-2-yl)methyl)-1-(1-((dimethylcarbamoyl)glycyl)piperidin-3-yl)-1-methylurea], the negative logarithm of the IC50 (pIC50) is 5.53.

`Cc1cnc2ncc(C(=O)N3CCC[C@@H](N(C)C(=O)NCc4cc5cc(Cl)ccc5[nH]4)C3)n2c1` [Compound 102, (R)-3-((5-chloro-1H-indol-2-yl)methyl)-1-methyl-1-(1-(6-methylimidazo[1,2-a]pyrimidine-3-carbonyl)piperidin-3-yl)urea]: the negative-log IC50 (pIC50) was 5.74.

As to `CN(C(=O)NCc1cc2cc(Cl)ccc2[nH]1)[C@@H]1CCCN(C(=O)C2CN(S(C)(=O)=O)C2)C1` [Compound 103, (R)-3-((5-chloro-1H-indol-2-yl)methyl)-1-methyl-1-(1-(1-(methylsulfonyl)azetidine-3-carbonyl)piperidin-3-yl)urea], the pIC50 is 5.65.

In the case of `CCC(NC(C)=O)C(=O)N1CCC[C@@H](N(C)C(=O)NCc2cc3cc(Cl)ccc3[nH]2)C1` (stereo partly drawn) [Compound 104, N-(1-((R)-3-(3-((5-chloro-1H-indol-2-yl)methyl)-1-methylureido)piperidin-1-yl)-1-oxobutan-2-yl)acetamide], the negative logarithm of the IC50 (pIC50) was 5.17.

On to `CC(C(=O)N1CCC[C@@H](N(C)C(=O)NCc2cc3cc(Cl)ccc3[nH]2)C1)C1(O)CCC1` (stereo partly drawn) [Compound 105, 3-((5-chloro-1H-indol-2-yl)methyl)-1-((3R)-1-(2-(1-hydroxycyclobutyl)propanoyl)piperidin-3-yl)-1-methylurea], for which the pIC50 was under 4.57.

As to `CN(C(=O)NCc1cc2cc(Cl)ccc2[nH]1)[C@@H]1CCCN(C(=O)CC2CCCCO2)C1` (stereo partly drawn) [Compound 106, 3-((5-chloro-1H-indol-2-yl)methyl)-1-methyl-1-((3R)-1-(2-(tetrahydro-2H-pyran-2-yl)acetyl)piperidin-3-yl)urea], the pIC50 is 5.75.

For `COc1ccc(CC(=O)N2CCC[C@@H](N(C)C(=O)NCc3cc4cc(Cl)ccc4[nH]3)C2)cc1F` [Compound 107, (R)-3-((5-chloro-1H-indol-2-yl)methyl)-1-(1-(2-(3-fluoro-4-methoxyphenyl)acetyl)piperidin-3-yl)-1-methylurea], the pIC50 is 5.90.

Consider `CN(C(=O)NCc1cc2cc(Cl)ccc2[nH]1)[C@@H]1CCCN(C(=O)[C@H]2CC[C@H](O)CC2)C1` [Compound 108], for which the pIC50 was 5.64.

As to `CCNC(=O)NC(C)C(=O)N1CCC[C@@H](N(C)C(=O)NCc2cc3cc(Cl)ccc3[nH]2)C1` (stereo partly drawn) [Compound 109, 3-((5-chloro-1H-indol-2-yl)methyl)-1-((3R)-1-((ethylcarbamoyl)alanyl)piperidin-3-yl)-1-methylurea], the negative-log IC50 (pIC50) is 5.74.

In the case of `CN(C(=O)NCc1cc2cc(Cl)ccc2[nH]1)[C@@H]1CCCN(C(=O)C(O)CO)C1` (stereo partly drawn) [Compound 110, 3-((5-chloro-1H-indol-2-yl)methyl)-1-((3R)-1-(2,3-dihydroxypropanoyl)piperidin-3-yl)-1-methylurea], the pIC50 was 5.07.

With `CN(C(=O)NCc1cc2cc(Cl)ccc2[nH]1)[C@@H]1CCCN(C(=O)C2(CO)CCC2)C1` [Compound 122, (R)-3-((5-chloro-1H-indol-2-yl)methyl)-1-(1-(1-(hydroxymethyl)cyclobutane-1-carbonyl)piperidin-3-yl)-1-methylurea], the pIC50 was 5.07.

As to `CN(C(=O)NCc1cc2cc(Cl)ccc2[nH]1)[C@@H]1CCCN(C(=O)C23CC(C2)C3)C1` [Compound 123, (R)-1-(1-(bicyclo[1.1.1]pentane-1-carbonyl)piperidin-3-yl)-3-((5-chloro-1H-indol-2-yl)methyl)-1-methylurea], the negative-log IC50 (pIC50) is 6.37.

As for `CN(C(=O)NCc1cc2cc(Cl)ccc2[nH]1)[C@@H]1CCCN(C(=O)C2CC(F)C2)C1` (stereo partly drawn) [Compound 124, (R)-3-((5-chloro-1H-indol-2-yl)methyl)-1-(1-(3-fluorocyclobutane-1-carbonyl)piperidin-3-yl)-1-methylurea], the negative logarithm of the IC50 (pIC50) was 6.59.

Take `CN(C(=O)NCc1cc2cc(Cl)ccc2[nH]1)[C@@H]1CCCN(C(=O)C2CCC2F)C1` (stereo partly drawn) [Compound 125, 3-((5-chloro-1H-indol-2-yl)methyl)-1-((3R)-1-(2-fluorocyclobutane-1-carbonyl)piperidin-3-yl)-1-methylurea]: the pIC50 is 6.59.

For `CN(C(=O)NCc1cc2cc(Cl)ccc2[nH]1)[C@@H]1CCCN(C(=O)C2(C)COC2)C1` [Compound 126, (R)-3-((5-chloro-1H-indol-2-yl)methyl)-1-methyl-1-(1-(3-methyloxetane-3-carbonyl)piperidin-3-yl)urea], the pIC50 was 5.84.

`CN(C(=O)NCc1cc2cc(Cl)ccc2[nH]1)[C@@H]1CCCN(C(=O)C2(F)CCC2)C1` [Compound 127, (R)-3-((5-chloro-1H-indol-2-yl)methyl)-1-(1-(1-fluorocyclobutane-1-carbonyl)piperidin-3-yl)-1-methylurea]: the pIC50 is 6.17.

For the compound `CN(C(=O)NCc1cc2cc(Cl)ccc2[nH]1)[C@@H]1CCCN(C(=O)C2(O)CCC2)C1` [Compound 128, (R)-3-((5-chloro-1H-indol-2-yl)methyl)-1-(1-(1-hydroxycyclobutane-1-carbonyl)piperidin-3-yl)-1-methylurea], the pIC50 was 5.74.

In the case of `CN1CC(C(=O)N2CCC[C@@H](N(C)C(=O)NCc3cc4cc(Cl)ccc4[nH]3)C2)C1` [Compound 129, (R)-3-((5-chloro-1H-indol-2-yl)methyl)-1-methyl-1-(1-(1-methylazetidine-3-carbonyl)piperidin-3-yl)urea], the pIC50 was under 4.50.

As to `CN(C(=O)NCc1cc2cc(Cl)ccc2[nH]1)[C@@H]1CCCN(C(=O)C2CNC2)C1` [Compound 130, (R)-1-(1-(azetidine-3-carbonyl)piperidin-3-yl)-3-((5-chloro-1H-indol-2-yl)methyl)-1-methylurea], the pIC50 is 4.92.

As for `CN(C(=O)NCc1cc2cc(Cl)ccc2[nH]1)[C@@H]1CCCN(C(=O)[C@@H]2CC(=O)CN2)C1` [Compound 131, 3-((5-chloro-1H-indol-2-yl)methyl)-1-methyl-1-((R)-1-((S)-4-oxopyrrolidine-2-carbonyl)piperidin-3-yl)urea], the negative-log IC50 (pIC50) is under 4.34.

`COCC(N)C(=O)N1CCC[C@@H](N(C)C(=O)NCc2cc3cc(Cl)ccc3[nH]2)C1` (stereo partly drawn) [Compound 132, 3-((5-chloro-1H-indol-2-yl)methyl)-1-methyl-1-((3R)-1-(O-methylseryl)piperidin-3-yl)urea]: the negative-log IC50 (pIC50) was under 4.51.

Consider `CN(C(=O)NCc1cc2cc(Cl)ccc2[nH]1)[C@@H]1CCCN(C(=O)C2COCCN2)C1` (stereo partly drawn) [Compound 133, 3-((5-chloro-1H-indol-2-yl)methyl)-1-methyl-1-((3R)-1-(morpholine-3-carbonyl)piperidin-3-yl)urea], for which the negative logarithm of the IC50 (pIC50) was under 5.12.

In the case of `CC(=O)N1CCC[C@@H](N(C)C(=O)NCc2cc3ccc(OCc4cncs4)cc3[nH]2)C1` [Compound 136, (R)-1-(1-acetylpiperidin-3-yl)-1-methyl-3-((6-(thiazol-5-ylmethoxy)-1H-indol-2-yl)methyl)urea], the negative logarithm of the IC50 (pIC50) is 5.40.

Regarding `CC(=O)N1CCC[C@@H](N(C)C(=O)NCc2cc3cc(Cl)c(OCc4ccon4)cc3[nH]2)C1` [Compound 138, (R)-1-(1-acetylpiperidin-3-yl)-3-((5-chloro-6-(isoxazol-3-ylmethoxy)-1H-indol-2-yl)methyl)-1-methylurea], the negative-log IC50 (pIC50) is 6.19.
